Values quoted from earlier work as cited in patent US20240285562A1, “USE OF (S)-3-AMINO-4-(DIFLUOROMETHYLENYL) CYCLOPENT-1-ENE-1-CARBOXYLIC ACID IN THE TREATMENT OF MULTIPLE SCLEROSIS” (Ovid Therapeutics Inc., priority 2023, published 2024).

Columns and labels:
[1] = system: autoimmune response in EAE; conditions: oral or parenteral administration, murine EAE
[2] = system: aspartate aminotransferase (Asp-AT)
[3] = system: alanine amidotransferase (Ala-AT)
OAT = biological target: T1, OAT (Homo sapiens, UniProt P04181)
T1 sequence (P04181 36-439 limits assumed): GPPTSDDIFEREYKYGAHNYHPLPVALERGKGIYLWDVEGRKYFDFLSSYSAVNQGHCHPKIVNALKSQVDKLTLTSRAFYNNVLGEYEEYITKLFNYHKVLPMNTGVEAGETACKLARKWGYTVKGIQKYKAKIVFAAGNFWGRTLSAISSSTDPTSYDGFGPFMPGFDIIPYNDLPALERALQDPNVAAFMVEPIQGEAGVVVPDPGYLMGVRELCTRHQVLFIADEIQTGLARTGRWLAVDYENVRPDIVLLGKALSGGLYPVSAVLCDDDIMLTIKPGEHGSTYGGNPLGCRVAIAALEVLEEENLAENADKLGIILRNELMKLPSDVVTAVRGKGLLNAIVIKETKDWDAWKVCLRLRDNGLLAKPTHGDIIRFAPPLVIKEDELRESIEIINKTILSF

NCCCC(=O)O [GABA, gamma-aminobutyric acid]
reduction of the damaging autoimmune response [1]: ineffective

N[C@H]1C[C@@H](C(=O)O)CC1=C(F)F [CPP-115, (1S,3S)-3-amino+difluoromethylenyl-1-cyclopentanoic acid, reference compound]
inactivation or inhibition of off-target enzyme [2]: not to inactivate or inhibit | inactivation or inhibition of off-target enzyme [3]: not to inactivate or inhibit | Ki (OAT; OAT inactivation): 116 µM

N[C@H]1C=C(C(=O)O)CC1=C(F)F [(S)-3-amino-4-(difluoromethylenyl)cyclopent-1-ene-1-carboxylic acid]
IC50 ([2]; reversible inhibition): > 4000 µM | IC50 ([3]; reversible inhibition): > 4000 µM | times more efficient an inactivator of OAT than CPP-115 (OAT; ratio of kinact/KI versus CPP-115): 9.0 times
